Reference: paper PMC6063332 (Archives of Toxicology, 2018)

What was measured:
[1] = target: T1, HDAC3 (Homo sapiens, UniProt O15379); assay: Biochemical HDAC3 activity, fluorogenic p53 peptide (Reaction Biology); conditions: fluorogenic p53 peptide RHKK(Ac)AMC
T1 construct: purchased Reaction Biology Corp. (contract testing)
Description: ^2 Biochemical HDAC3 IC50 value, determined using a fluorogenic p53 peptide, detailed results depicted in Supplementary Figure 1 a.

[2] = target: T2, HDAC10 (Homo sapiens, UniProt Q969S8); assay: NanoBRET cellular target engagement assay; assay type: binding; conditions: HeLa cells
T2 construct: host or cells: HeLa cells, stably transfected
T2 sequence (Q969S8 1-669): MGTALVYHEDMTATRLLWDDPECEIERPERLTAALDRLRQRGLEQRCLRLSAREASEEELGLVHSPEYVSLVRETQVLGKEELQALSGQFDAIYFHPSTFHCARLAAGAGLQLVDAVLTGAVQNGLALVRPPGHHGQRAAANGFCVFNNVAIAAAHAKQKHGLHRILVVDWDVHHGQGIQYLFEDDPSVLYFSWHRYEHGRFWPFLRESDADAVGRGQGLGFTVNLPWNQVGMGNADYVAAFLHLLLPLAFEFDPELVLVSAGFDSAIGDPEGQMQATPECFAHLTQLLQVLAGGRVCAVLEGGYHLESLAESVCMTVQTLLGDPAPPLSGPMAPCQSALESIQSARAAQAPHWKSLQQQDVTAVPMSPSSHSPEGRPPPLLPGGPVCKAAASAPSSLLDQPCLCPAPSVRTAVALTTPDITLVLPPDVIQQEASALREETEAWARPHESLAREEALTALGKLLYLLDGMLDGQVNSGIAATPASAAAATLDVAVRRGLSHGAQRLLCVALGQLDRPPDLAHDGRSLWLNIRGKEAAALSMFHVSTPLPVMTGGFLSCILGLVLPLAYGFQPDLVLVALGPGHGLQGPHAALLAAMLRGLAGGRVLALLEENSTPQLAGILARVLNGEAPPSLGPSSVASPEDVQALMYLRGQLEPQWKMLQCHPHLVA
Experimental: HeLa cells, stably transfected with NanoBRET plasmids NanoLuc®-HDAC6 FL Fusion Vector and NanoLuc®-HDAC10 FL Fusion Vector (Promega, Madison, WI, USA) were seeded at 20,000 cells/well in white 96-well plates. Without further incubation, tracer (0.3 µM) and drugs were added in separate steps and plates were placed in a tissue culture incubator for 2 h. For NanoBRET quantification, plates were put at room temperature for 10 min. Nanoglow substrate, diluted in OptiMEM without phenol red, was added and measured within 10 min in an OPTIMA plate reader (460 nm emission for donor and 610LP filter for acceptor, BMG Labtech, Ortenberg, Germany). The BRET signal was calculated by the ratio of acceptor signal to donor signal.

T1 sequence (O15379 whole entry): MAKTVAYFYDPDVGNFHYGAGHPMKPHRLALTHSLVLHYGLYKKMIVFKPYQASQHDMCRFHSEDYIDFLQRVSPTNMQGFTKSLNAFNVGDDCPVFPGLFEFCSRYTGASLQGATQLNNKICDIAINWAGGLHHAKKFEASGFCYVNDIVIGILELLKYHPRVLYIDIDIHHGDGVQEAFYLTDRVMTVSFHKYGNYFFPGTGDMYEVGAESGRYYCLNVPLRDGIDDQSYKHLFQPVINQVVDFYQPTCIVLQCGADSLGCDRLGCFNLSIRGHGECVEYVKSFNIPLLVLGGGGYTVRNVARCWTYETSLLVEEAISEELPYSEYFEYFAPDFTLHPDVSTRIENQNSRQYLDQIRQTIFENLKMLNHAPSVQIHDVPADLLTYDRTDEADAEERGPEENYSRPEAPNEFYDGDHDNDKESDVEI
T1 sequence (Q9Y618 395-489 partner limits assumed): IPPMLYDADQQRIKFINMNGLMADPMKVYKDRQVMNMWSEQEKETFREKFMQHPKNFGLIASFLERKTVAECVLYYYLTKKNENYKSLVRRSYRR

IC50 [1]: 78.3 ± 0.9 µM
IC50 [2]: 7.7 µM
Compound: Cc1ccc(C(=O)NO)cc1NCc1ccccc1 [TH34, 3-(N-benzylamino)-4-methylbenzhydroxamic acid]
